Source: patent US11407771B2 (priority 2018, dated 2022)

The molecules below were run against MAPK13 (Homo sapiens (Human), UniProt O15264). Conditions: read-out: MAPK13 IC50.
Sequence of MAPK13 (O15264 whole entry): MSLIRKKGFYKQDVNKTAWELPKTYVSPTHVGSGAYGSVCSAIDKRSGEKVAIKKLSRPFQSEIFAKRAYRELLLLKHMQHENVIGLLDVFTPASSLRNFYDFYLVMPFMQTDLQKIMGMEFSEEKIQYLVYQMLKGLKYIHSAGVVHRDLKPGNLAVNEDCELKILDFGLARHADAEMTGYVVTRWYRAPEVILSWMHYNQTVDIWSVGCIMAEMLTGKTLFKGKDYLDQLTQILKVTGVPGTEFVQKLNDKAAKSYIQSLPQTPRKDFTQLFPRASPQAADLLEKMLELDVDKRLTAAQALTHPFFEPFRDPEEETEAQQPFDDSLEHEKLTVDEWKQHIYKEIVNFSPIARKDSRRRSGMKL

SMILES	IC50 [nM]
CC(=O)Nc1cc(Oc2ccc(NC(=O)Nc3cc(C(C)(C)C)no3)c(F)c2)ccn1 [Compound 395, N-(4-{4-[3-(3-tert-Butyl-isoxazol-5-yl)-ureido]-3-fluoro-phenoxy}-pyridin-2-yl)-acetamide]	11
Cc1ccc(-n2nc(C(C)(C)C)cc2NC(=O)Nc2ncc(CCc3ccnc(NC(=O)C4CCC4)c3)s2)cc1 [Compound 332, Cyclobutanecarboxylic acid [4-(2-{2-[3-(5-tert-butyl-2-p-tolyl-2H-pyrazol-3-yl)-ureido]-thiazol-5-yl}-ethyl)-pyridin-2-yl]-amide]	18
CC(=O)Nc1cc(Oc2ccc(NC(=O)Nc3cc(C(C)(C)C)on3)c(F)c2)ccn1 [Compound 394, N-(4-{4-[3-(5-tert-Butyl-isoxazol-3-yl)-ureido]-3-fluoro-phenoxy}-pyridin-2-yl)-acetamide]	9

Same assay, conditions: read-out: MAPK13 inhibition

SMILES	IC50 [nM]
CCOC(=O)Nc1cc(CCc2cnc(NC(=O)Nc3cc(C(F)(F)F)ccc3F)s2)ccn1 [Compound 357, [4-(2-{2-[3-(2-Fluoro-5-trifluoromethyl-phenyl)-ureido]-thiazol-5yl}-ethyl)-pyridin-2-yl]-carbamic acid ethyl ester]	> 1000
CC(=O)Nc1cc(Oc2ccc(NC(=O)Nc3cc(C(C)(C)C)no3)c(F)c2)ccn1 [Compound 395, N-(4-{4-[3-(3-tert-Butyl-isoxazol-5-yl)-ureido]-3-fluoro-phenoxy}-pyridin-2-yl)-acetamide]	< 250
Cn1nc(C(C)(C)C)cc1NC(=O)Nc1ncc(CCc2ccnc(NC(=O)C3CCC3)c2)s1 [Compound 353, Cyclobutanecarboxylic acid [4-(2-{2-[3-(5-tert-butyl-2-methyl-2H-pyrazol-3-yl)-ureido]-thiazol-5-yl}-ethyl)-pyridin-2-yl]-amide]	< 250
CC(=O)Nc1cc(CCc2cnc(NC(=O)Nc3cc([Si](C)(C)C)ccc3F)s2)ccn1 [Compound 400, N-[4-(2-{2-[3-(2-Fluoro-5-trimethylsilanyl-phenyl)-ureido]-thiazol-5-yl}-ethyl)-pyridin-2-yl]-acetamide]	< 250
COC(=O)Nc1cc(Oc2ccc(NC(=O)Nc3cc(C4(C)COC4)nn3-c3ccc(C)cc3)cc2)ccn1 [Compound 261, [4-(4-{3-[5-(3-Methyl-oxetan-3-yl)-2-p-tolyl-2H-pyrazol-3-yl]-ureido}-phenoxy)-pyridin-2-yl]-carbainic acid methyl ester]	< 250
CC(C)(C)c1cc(NC(=O)Nc2ccc(Oc3ccncc3)cc2F)n(CC2CC2)n1 [Compound 310, 1-(5-tert-Butyl-2-cyclopropylmethyl-2H-pyrazol-yl)-3-[2-fluoro-4-(pyridin-4-yloxy)-phenyl]-urea]	< 250
CC(=O)Nc1cc(CCc2ccc(NC(=O)Nc3cc(C(F)(F)F)ccc3F)c(F)c2)ccn1 [Compound 360, N-[4-(2-{3-Fluoro-4-[3-(2-fluoro-5-trifluoromethyl-phenyl)-ureido]-phenyl}-ethyl)-pyridin-2-yl]-acetamide]	> 1000
CC(=O)Nc1cc(Oc2ccc(NC(=O)Nc3cc([Si](C)(C)C)ccc3F)c(F)c2)ccn1 [Compound 399, N-(4-{3-Fluoro-4-[3-(2-fluoro-5-trimethylsilanyl-phenyl)-ureido]-phenoxy}-pyridin-2-yl)-acetamide]	< 250
COCC(=O)Nc1cc(CCc2cnc(NC(=O)Nc3cc(C(C)(C)C)nn3C)s2)ccn1 [Compound 350, N-[4-(2-{2-[3-(5-tert-Butyl-2-methyl-2H-pyrazol-3-yl)-ureido]-thiazol-5-yl}-ethyl)-pyridin-2-yl]-2-methoxy-acetamide]	< 250
Cc1ccc(-n2nc(C(C)(C)C)cc2NC(=O)Nc2ncc(CCc3ccnc(NC(=O)C4CCC4)c3)s2)cc1 [Compound 332, Cyclobutanecarboxylic acid [4-(2-{2-[3-(5-tert-butyl-2-p-tolyl-2H-pyrazol-3-yl)-ureido]-thiazol-5-yl}-ethyl)-pyridin-2-yl]-amide]	< 250
O=C(CO)Nc1cc(Oc2ccc(NC(=O)Nc3cc(C4CC4)ccc3F)c(F)c2)ccn1 [Compound 424, N-(4-{4-[3-(5-Cyclopropyl-2-fluoro-phenyl)-ureido]-3-fluoro-phenoxy}-pyridin-2-yl)-2-hydroxy-acetamide]	< 250
CC(C)(C)c1cc(NC(=O)Nc2ccc(CCc3ccnc(NC(=O)C4CC4)c3)cc2F)no1 [Compound 378, Cyclopropanecarboxylic acid [4-(2-{4-[3-(5-tert-butyl-isoxazol-3-yl)-ureido]-3-fluoro-phenyl}-ethyl)-pyridin-2-yl]-amide]	> 1000
CC(C)(C)c1cccc(NC(=O)Nc2ccc(CCc3ccnc(NC(=O)C4CC4)c3)cc2F)c1 [Compound 376, Cyclopropancearboxylic acid [4-(2-{4-[3-(3-tert-butyl-phenyl)-ureido]-3-fluoro-phenyl}-ethyl)-pyridin-2-yl]-amide]	> 1000
CC(=O)Nc1cc(CCc2ccc(NC(=O)Nc3cc(C(C)(C)C)no3)c(F)c2)ccn1 [Compound 359, N-[4-(2-{4-[3-(3-tert-Butyl-isoxazol-5-yl)-ureido]-3-fluoro-phenyl}-ethyl)-pyridin-2-yl]-acetamide]	> 1000
CC(C)(C)c1cc(NC(=O)Nc2ccc(CCc3ccnc(NC(=O)C4CC4)c3)cc2F)on1 [Compound 374, Cycloproprinecarboxylic acid [4-(2-{4-[3-(3-tert-butyl-isoxazol-5-yl)-ureido]-3-fluoro-phenyl}-ethyl)-pyridin-2-yl]-amide]	> 1000
CC(C)(C)c1cc(NC(=O)Nc2ccc(Oc3ccnc(N)c3)cc2F)n(-c2cccc(F)c2)n1 [Compound 304, 1-[4-(2-Amino-pyridin-4-yloxy)-2-fluoro-phenyl]-3-[5-tert-butyl-2-(3-fluoro-phenyl)-2H-pyrazol-3-yl]-urea]	< 250
CC(=O)Nc1cc(CCc2ccc(NC(=O)Nc3cc(C(C)(C)C)nn3C(C)C)c(F)c2)ccn1 [Compound 371, N-[4-(2-{4-[3-(5-tert-Butyl-2-isopropyl-2H-pyrazol-3-yl)-ureido]-3-fluoro-phenyl}-ethyl)-pyridin-2-yl]-acetamide]	> 1000

SMILES	IC50 [nM]
CCNC(=O)Nc1cc(CCc2cnc(NC(=O)Nc3cc(C(C)(C)C)nn3CC3CC3)s2)ccn1 [Compound 340, 1-[4-(2-{2-[3-(5-tert-Butyl-2-cyclopropylmethyl-2H-pyrazol-3-yl)-uredo]-thiazol-5-yl}-ethyl)-pyridin-2-yl]-3-ethyl-urea]	< 250
COCCC(=O)Nc1cc(CCc2cnc(NC(=O)Nc3cc(C(C)(C)C)nn3CC3CC3)s2)ccn1 [Compound 342, N-[4-(2-{2-[3-(5-tert-Butyl-2-cyclopropylmethyl-2H-pyrazol-3-yl)-ureido]-thiazol-5-yl}-ethyl)-pyridin-2-yl]-3-methoxy-propionamide]	< 250
CC(=O)Nc1cc(CCc2ccc(NC(=O)Nc3cc(C(C)(C)C)nn3CC3CC3)c(F)c2)ccn1 [Compound 370, N-[4-(2-{4-[3-(5-tert-Butyl-2-cyclopropylmethyl-2H-pyrazol-3-yl)-ureido]-3-fluoro-phenyl}-ethyl)-pyridin-2-yl]-acetamide]	> 1000
Cc1ccc(-n2nc(C(C)(C)C)cc2NC(=O)Nc2ccc(Oc3ccncc3C)cc2F)cc1 [Compound 300, 1-(5-tert-Butyl-2-p-tolyl-2H-pyrazol-3-yl)-3-[2-fluoro-4-(3-methyl-pyridin-4-yloxy)-phenyl]-urea]	< 250
CC(C)(C)c1cc(NC(=O)Nc2ncc(CCc3ccnc(NC(=O)C4CCC4)c3)s2)n(CC2CC2)n1 [Compound 339, Cyclobutanecarboxylic acid [4-(2-{2-[3-(5-tert-butyl-2-cyclopropylmethyl-2H-pyrazol-3-yl)-ureido]-thiazol-5-yl}-ethyl)-pyridin-2-yl]-airdde]	< 250
CC(C)(C)c1ccc(Cl)c(NC(=O)Nc2ccc(Oc3ccnc(N)c3)cc2F)c1 [Compound 428, 1-[4-(2-Amino-pyridin-4-yloxy)-2-fluoro-phenyl]-3-(5-tert-butyl-2-chloro-phenyl)-urea]	> 1000
CC(=O)Nc1cc(Oc2ccc(NC(=O)Nc3cc(C(C)(C)C)on3)c(F)c2)ccn1 [Compound 394, N-(4-{4-[3-(5-tert-Butyl-isoxazol-3-yl)-ureido]-3-fluoro-phenoxy}-pyridin-2-yl)-acetamide]	< 250
CC(C)C(=O)Nc1cc(CCc2cnc(NC(=O)Nc3cc(C(C)(C)C)nn3C)s2)ccn1 [Compound 349, N-[4-(2-{2-[3-(5-tert-Butyl-2-methyl-2H-pyrazol-3-yl)-ureido]-thiazol-5-yl}-ethyl)-pyridin-2-yl]-isobutyramide]	< 250
CC(=O)Nc1cc(CCc2cnc(NC(=O)Nc3cc(C(C)(C)C)nn3CC3CC3)s2)ccn1 [Compound 325, N-[4-(2-{2-[3-(5-tert-Butyl-2-cyclopropylmethyl-2H-pyrazol-3-yl)-ureido]-thiazol-5-yl}-ethyl)-pyridin-2-yl]-acetamide]	< 250
Cn1nc(C(C)(C)C)cc1NC(=O)Nc1ncc(CCc2ccnc(NC(=O)C3CC3)c2)s1 [Compound 345, Cyclopropanecarboxylic acid [4-(2-{2-[3-(5-tert-butyl-2-methyl-2H-pyrazol-3-yl)-ureido]-thiazol-5-yl}-ethyl)-pyridin-2-yl]-amide]	< 250
CCOC(=O)Nc1cc(CCc2cnc(NC(=O)Nc3cc(C(C)(C)C)on3)s2)ccn1 [Compound 364, [4-(2-{2-[3-(5-tert-Butyl-isoxazol-3-yl)-ureido]-thiazol-5-yl}-ethyl)-pyridin-2-yl]-carbamic acid ethyl ester]	< 250
COCC(=O)Nc1cc(Oc2ccc(NC(=O)Nc3cc(C4(C)CSC4)nn3-c3ccc(C)cc3)cc2)ccn1 [Compound 260, 2-Methoxy-N-[4-(4-{3-[5-(3-methyl-thietan-3-yl)-2-p-tolyl-2H-pyrazol-3-yl]-ureido}-phenoxy)-pyridin-2-yl]-acetamide]	< 250
CC(C)(C)c1cc(NC(=O)Nc2ncc(CCc3ccnc(NC(=O)C4CC4)c3)s2)[nH]n1 [Compound 368, Cyclopropanecarboxylic acid [4-(2-{2-[3-(5-tert-butyl-2H-pyrazol-3-yl)-ureido]-thiazol-5-yl}-ethyl)-pyridin-2-yl]-amide]	< 250
CC(C)(C)c1cc(NC(=O)Nc2ncc(CCc3ccnc(NC(=O)C4CC4)c3)s2)n(CC2CC2)n1 [Compound 334, Cyclopropanecarboxylic acid [4-(2-{2-[3-(5-tert-butyl-2-cyclopropylmethyl-2H-pyrazol-3-yl)-ureido]-thiazol-5-yl}-ethyl)-pyridin-2-yl]-amide]	< 250
COCC(=O)Nc1cc(Oc2ccc(NC(=O)Nc3cc(C4(C)COC4)nn3-c3ccc(C)cc3)cc2)ccn1 [Compound 259, 2-Methoxy-N-[4-(4-{3-[5-(3-methyl-oxetan-3-yl)-2-p-tolyl-2H-pyrazol-3-yl]-ureido}-phenoxy)-pyridin-2-yl]-acetamide]	< 250
CC(=O)Nc1cc(CCc2cnc(NC(=O)Nc3cc(C(C)(C)C)no3)s2)ccn1 [Compound 382]	< 250
